# In PMC10473914, “Phosphorylation of Ack1 by the Receptor Tyrosine Kinase Mer” (Kinases and phosphatases, 2023):
# “Also recorded” adds a separate entry of the source. Where a SMILES comes first, the peptide text is derived from it. [ ]: non-standard residue; d: D form. The star is where a group is joined. FITC = O=C1OC2(c3ccc(O)cc3Oc3cc(O)ccc32)c2ccc(NC(=S)*)cc21; pY = N[C@@H](Cc1ccc(OP(=O)(O)O)cc1)C(=O)O
# Columns and labels:
# Ack1 = settings: mice treated with a TLR7 ligand; cited from earlier work
# Text: It is increasingly clear that Mer plays a crucial role in the macrophage-mediated phagocytosis of apoptotic cells. […] Gas6 has a Gla domain at its N-terminus and binds to Mer and other TAMs to promote tyrosine kinase activity. […] Gene expression studies in colon cancer patients have shown a correlation between Ack1 expression and the extent of immune cell infiltration. Ack1 is required for apoptosis induced by TRAIL, an apoptosis-promoting factor [25], and dysregulation of Ack1 is linked to abnormal apoptotic activity. Ack1 promotes the activation of the Toll-like receptor (TLR) family members TLR4, TLR7, and TLR9 in macrophages and dendritic cells. A small molecule inhibitor of Ack1 (AIM-100) re ...
# macrophages = settings: cited from earlier work
# Text: Gene expression studies in colon cancer patients have shown a correlation between Ack1 expression and the extent of immune cell infiltration. Ack1 is required for apoptosis induced by TRAIL, an apoptosis-promoting factor [25], and dysregulation of Ack1 is linked to abnormal apoptotic activity. Ack1 promotes the activation of the Toll-like receptor (TLR) family members TLR4, TLR7, and TLR9 in macrophages and dendritic cells. A small molecule inhibitor of Ack1 (AIM-100) re ...
# Mer kinase domain = target: T1, Mer kinase domain (Homo sapiens, UniProt Q12866); experiment: Fluorescence polarization binding of fluorescein-labeled phosphopeptides to Mer kinase domain
# T1 construct: His tag; host or cells: E. coli YGT cells co-expressing YopH tyrosine phosphatase and GroEL
# T1 sequence (Q12866 587-858 limits assumed): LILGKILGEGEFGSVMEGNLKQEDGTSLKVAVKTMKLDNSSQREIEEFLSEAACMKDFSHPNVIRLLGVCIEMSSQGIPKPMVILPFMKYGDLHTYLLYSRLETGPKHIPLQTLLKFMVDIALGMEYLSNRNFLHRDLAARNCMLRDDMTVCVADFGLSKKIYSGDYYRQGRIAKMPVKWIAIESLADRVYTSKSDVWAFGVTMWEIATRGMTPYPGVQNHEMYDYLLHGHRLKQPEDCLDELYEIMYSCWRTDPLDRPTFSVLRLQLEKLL
# Method: (§1) Figure 4. Ack1 MHR-derived peptides. (A) Position of the MHR domain in Ack1. The expanded sequences show an alignment between Mig6 and the MHR of Ack1, with Y859–Y860 in yellow. Asterisks indicate conserved residues. (B) Phosphorylation of MHR-derived peptides (100 μM) by Mer was measured using the phosphocellulose paper binding assay (SEM error bars). (C) Binding of fluorescein-labeled pY860 peptide to Mer kinase domain was measured by fluorescence polarization.
# To confirm the interaction between pY860 and Mer, we attached fluorescein to the N-terminus of peptide pY860 and measured fluorescence polarization in the presence of increasing concentrations of Mer catalytic domain (Figure 4C).
# Phosphotyrosine-containing peptides were fluorescently labeled by reaction with fluorescein isothiocyanate (5 molar equivalents) in 100 mM potassium phosphate buffer (pH 7.0) for 1 h at room temperature. The fluorescent peptides were purified by gel filtration chromatography on G15 Sephadex. Fluorescence polarization was measured in a Wallac1420 Victor2 instrument using 96-well half area black plates (Thermo Fisher, Waltham, MA, USA). The excitation filter was 485 nm, and the emission filter was 535 nm. Measurements were performed in volumes of 50 μL using a buffer of 50 mM Tris (pH 7.4), with peptide concentrations of 0.25 μM or 0.5 μM. The data were analyzed with Origin software (Origin v.7).
# [1] = target: fluorescein-labeled Ack1 MHR peptide pY860; experiment: fluorescence polarisation; fluorescein-labelled phosphopeptide at 0.25 or 0.5 uM, increasing concentrations of Mer catalytic domain; 50 mM Tris pH 7.4, 50 uL; apparent Kd
# Mer kinase = experiment: Phosphocellulose paper binding assay: phosphorylation of MHR-derived peptides by Mer; format: biochemical, human; settings: peptide 100 μM; [γ-32P]ATP; purified Mer kinase domain; 30 °C
# Method: as §1
# For IP-kinase assays, cell lysates (1 mg protein) were incubated with 30 μL of EZview red anti-FLAG M2 affinity resin at 4 °C for 4 h-overnight, then washed three times with Tris-buffered saline. A portion of each sample was eluted with SDS-PAGE sample buffer and analyzed by anti-Flag Western blotting. […]
# Synthetic peptides and phosphopeptides were purchased from Genemed Synthesis Inc., San Antonio, TX, USA and were purified by semipreparative HPLC on a Vydac C18 column. Peptide phosphorylation was measured using the phosphocellulose paper binding assay with [γ-^32P] […] In this assay, the production of ADP was coupled to the oxidation of NADH, which was measured as a reduction in absorbance at 340 nm. […] Absorbance data were recorded every 8 s. Kinetic constants were determined by nonlinear fitting to the initial velocity vs. (substrate) curves using GraphPad Prism, San Diego, CA, USA (v.9).
compound,measurement,setting,value
c1ccc(-c2oc3ncnc(NC[C@@H]4CCCO4)c3c2-c2ccccc2)cc1 [AIM-100],Effect on lupus symptoms / lupus-like phenotype,Ack1,mitigated the lupus symptoms; also recorded: diminishing the lupus-like phenotype
same,Effect on TLR-mediated activation of macrophages,macrophages,reduced
CC(C)C[C@H](NC(=O)[C@H](Cc1ccc(OP(=O)(O)O)cc1)NC(=O)[C@H](Cc1ccc(O)cc1)NC(=O)[C@H](Cc1c[nH]cn1)NC(=O)[C@@H](NC(=O)[C@H](CO)NC(=O)[C@H](CO)NC(=O)[C@@H](NC(=O)[C@H](CCCCN)NC(=O)[C@H](CCCCN)NC(=O)CNC(=O)[C@H](CC(=O)O)NC(=O)[C@H](CCCNC(=N)N)NC(=S)Nc1ccc2c(c1)C(=O)OC21c2ccc(O)cc2Oc2cc(O)ccc21)C(C)C)[C@@H](C)O)C(=O)N[C@@H](CC(C)C)C(=O)N1CCC[C@H]1C(=O)N[C@@H](CCC(=O)O)C(=O)O [pY860] ({FITC}-RDGKKVSSTHY[pY]LLPE-OH),Kd,Mer kinase domain,5.4 µM
His-tagged Mer kinase domain (from UniProt Q12866 587-858) (domain or fragment),Kd,[1],5.4 µM
"RDGKKVSSTHpYYLLPE [pY859, Ack1 MHR-derived phosphopeptide containing phosphorylated Y859]",Binding of peptide to Mer (fluorescence polarization),"Mer kinase domain; fluorescein-labeled peptide, 50 mM Tris pH 7.4, peptide 0.25 or 0.5 μM",below the detection limit; also recorded: poor binding
"RLSSSPGKTMPTTQSFASDPKYA [MHR1, Ack1 MHR-derived synthetic peptide containing Y827]",Phosphorylation of peptide by Mer (substrate quality),Mer kinase,not a good substrate
